Tested on: German cockroach (Blatella germanica)
Test: German cockroach mortality on treated filter paper
Type: in vivo, Blattella germanica
Settings: 24 h
Excerpt: The presence of a synergistic effect between the two active ingredients is established with the aid of the Colby equation (see Colby, S. R., “Calculating Synergistic and Antagonistic Responses of Herbicide Combinations”, Weeds 1967, 15, pg 20-22): E=X+Y−(XY/100).
Using the method of Colby, the presence of asynergistic interaction between two active ingredients is established by first calculating the expected activity, ‘E’, of the mixture based on activities of the two components applied alone. If ‘E’ is lower than the observed activity, synergy is present. In the equation above, ‘X’ is the percentage control observed when bifenthrin applied alone at rate ‘x’. The ‘Y’ term is percentage control observed when fipronil applied alone at rate ‘y’. The equation calculates ‘E’, the expected activity of the mixture of ‘X’ at rate ‘x’ with ‘Y’ at rate ‘y’ if their effects are strictly additive and no interaction has occurred.
The compositions of the present invention were tested for German cockroach (Blatella germanica) activity in the following manner.
Test solutions were made by dissolving technical grade bifenthrin and fipronil in acetone to provide appropriate rates of application of bifenthrin and fipronil alone, as well as combinations of bifenthrin and fipronil. The active ingredient concentrations tested were from 50 parts per million (0.05 mg of active ingredient/mL or 0.05 g/L) to 500 parts per million (0.5 mg of active ingredient/mL or 0.5 g/L), four replicates per rate. In a fume cabinet, one milliliter of a test solution was applied to a 9 cm Whatman® 2 qualitative filter paper using a calibrated pipette. The application started at the center of the filter paper with individual drops being applied in an outward circular motion so that the entire filter paper was uniformly treated. Acetone only (one mL) was applied in the same manner to provide an untreated control (UTC). The treated filter papers were allowed to dry for two hours. The dried, treated or untreated filter paper was placed into a plastic Petri dish and ten late instar, healthy and active German cockroaches (Blattella germanica) were momentarily immobilized using carbon dioxide and then placed onto the filter paper. The lid of each Petri dish was put on to contain the cockroaches. The Petri dishes were maintained at a temperature of 25° C. to 30° C. at ambient relative humidity out of direct sunlight. German cockroach mortality was assessed after 24 hours by counting the number of alive and the number of knocked down/dead cockroaches.
In order to compare the pesticidal effectiveness of the individual and combination treatments the LC 50 and LC 90 values (lethal concentration in ppm that would effectively knock down/kill 50% or 90% of the test pests) were calculated. In calculating the LC values for the various mixtures of bifenthrin and fipronil, probit analysis was conducted on the fipronil concentration of the mixture. […] The values calculated from the data of Table 1 are in Table 1A below.

[1] = probit analysis of Table 1 data, mixtures as bifenthrin:fipronil

`N#Cc1nn(-c2c(Cl)cc(C(F)(F)F)cc2Cl)c(N)c1[S+]([O-])C(F)(F)F` [Fipronil, (5-amino-[2,6-dichloro-4(trifluoromethyl)phenyl]-4-[(1R,S)-(trifluoromethyl)sulfinyl]-1H-pyrazole-3-carbonitrile] was tested, and the “% Observed Control” value (50 ppm (0.05 mg/mL)) was 22.5%, the “Mortality Rep 1 dead/alive” value (50 ppm (0.05 mg/mL)) was 7/3 and the “Mortality Rep 2 dead/alive” value (50 ppm (0.05 mg/mL)) was 1/9. For the same compound, the “Mortality Rep 3 dead/alive” value (50 ppm (0.05 mg/mL)) was 0/10, the “Mortality Rep 4 dead/alive” value (50 ppm (0.05 mg/mL)) was 1/9 and the “% Observed Control” value (100 ppm (0.1 mg/mL)) was 42.5%. The “Mortality Rep 1 dead/alive” value (100 ppm (0.1 mg/mL)) was 6/4, the “Mortality Rep 2 dead/alive” value (100 ppm (0.1 mg/mL)) was 3/7 and the “Mortality Rep 3 dead/alive” value (100 ppm (0.1 mg/mL)) was 4/6. The “Mortality Rep 4 dead/alive” value (100 ppm (0.1 mg/mL)) was 4/6, the “% Observed Control” value (250 ppm (0.25 mg/mL)) was 100% and the “Mortality Rep 1 dead/alive” value (250 ppm (0.25 mg/mL)) was 10/0. For the same compound, the “Mortality Rep 2 dead/alive” value (250 ppm (0.25 mg/mL)) was 10/0, the “Mortality Rep 3 dead/alive” value (250 ppm (0.25 mg/mL)) was 10/0 and the “Mortality Rep 4 dead/alive” value (250 ppm (0.25 mg/mL)) was 10/0. The “% Observed Control” value (500 ppm (0.5 mg/mL)) was 100%, the “Mortality Rep 1 dead/alive” value (500 ppm (0.5 mg/mL)) was 10/0 and the “Mortality Rep 2 dead/alive” value (500 ppm (0.5 mg/mL)) was 10/0. For the same compound, the “Mortality Rep 3 dead/alive” value (500 ppm (0.5 mg/mL)) was 10/0, the “Mortality Rep 4 dead/alive” value (500 ppm (0.5 mg/mL)) was 10/0 and the “LC 50” value [1] was 102 ppm. For the same compound, the “LC 90” value [1] was 179 ppm.
